Laboratory results reported in patent US20250281569A1, “COMPOSITIONS AND METHODS FOR TREATING NEUROENDOCRINE TUMORS” (CAMURUS AB, priority 2021, published 2025).

Assay: Non-clinical bridging studies of toxicity, PK and local tolerability
Settings: in vivo
From the text: In addition, the FluidCrystal® vehicle and the excipient glycerol dioleate have been evaluated.

Question: Which “main effects observed in non-clinical studies” value does the source give for `CCCCCCCC/C=C\CCCCCCCC(=O)OCC(CO)OC(=O)CCCCCCC/C=C\CCCCCCCC` (stereo not shown) [glycerol dioleate] here?
Answer: reversible injection-site reactions
